This note sets out measurements from PubChem BioAssay (NCI).

Several values for one entry are separate records, joined by “and”; a condition that tells them apart may be missing. Equal entries are not always repeated.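 Cultured in 96-well plates, cells were exposed to test compound for 48 hours across five concentrations. GI50 = concentration required for 50% inhibition of growth. At the TGI there is no net growth.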

Among the test systems are SNB-75 CNS; KM12 colon; MALME-3M melanoma; NCI-H23 lung; UACC-257 melanoma; OVCAR-4 ovarian; HCC-2998 colon; DU-145 prostate; SF-295 CNS; M14 melanoma.
What all share (assay): NCI-60 cell line screen, 48 h

With `CCc1ccc(C2=C/C(=C/c3ccc(Cl)cc3)C(=O)N2CCc2ccc(S(N)(=O)=O)cc2)cc1`, the GI50 with SNB-75 CNS was 2.79 µM; with KM12 colon it was 3.02 µM; in the experiment with MALME-3M melanoma, 1.96 µM; in the experiment on NCI-H23 lung it was 2.45 µM; with UACC-257 melanoma, 3.79 µM; in the experiment on OVCAR-4 ovarian it was 2.56 µM. Moreover, the GI50 is 2.59 µM in the experiment on HCC-2998 colon, 3.77 µM in the experiment with DU-145 prostate, 1.77 µM in the experiment on SF-295 CNS and 2.08 µM in the experiment with M14 melanoma. Also, the TGI with SNB-75 CNS is 12.9 µM; with KM12 colon it was 10.1 µM; in the experiment with MALME-3M melanoma it was 5.19 µM; in the experiment with NCI-H23 lung it was 7.46 µM; in the experiment on UACC-257 melanoma, 15.3 µM; in the experiment with OVCAR-4 ovarian, 8.03 µM. In addition, the TGI came to 7.2 µM in the experiment with HCC-2998 colon, 15.4 µM in the experiment with DU-145 prostate, 3.72 µM in the experiment on SF-295 CNS and 5.26 µM in the experiment on M14 melanoma.
As for `O=c1oc2ccc(Cl)cc2c(=O)n1-c1ccc(Cl)cc1F`, the GI50 is 0.219 µM in the experiment with SNB-75 CNS; 1.52 µM in the experiment with KM12 colon; 0.313 µM with MALME-3M melanoma; 0.326 µM in the experiment on NCI-H23 lung; 0.496 µM in the experiment on UACC-257 melanoma; 0.377 µM in the experiment on OVCAR-4 ovarian. Also, the GI50 is 2.36 µM in the experiment with HCC-2998 colon, 0.846 µM in the experiment with DU-145 prostate, 0.856 µM in the experiment with SF-295 CNS and 0.578 µM in the experiment on M14 melanoma. The TGI was determined as 1.54 µM in the experiment on SNB-75 CNS; 4.5 µM with KM12 colon; 1.55 µM in the experiment on MALME-3M melanoma; 1.79 µM in the experiment on NCI-H23 lung; 2.31 µM in the experiment with UACC-257 melanoma; 78.9 µM in the experiment with OVCAR-4 ovarian. Moreover, the TGI with HCC-2998 colon turned out to be 8.09 µM; in the experiment on DU-145 prostate, 24.7 µM; in the experiment on SF-295 CNS it was 2.43 µM; in the experiment with M14 melanoma, 2.12 µM.
In the case of `CN(C)CC/C=C1\c2ccccc2Sc2ccc(Cl)cc21`, the GI50 is 2.46 µM in the experiment on SNB-75 CNS; 2.54 µM in the experiment with KM12 colon; 1.71 µM with MALME-3M melanoma; 3.52 µM in the experiment with NCI-H23 lung; 1.49 µM with UACC-257 melanoma; 3.72 µM in the experiment on OVCAR-4 ovarian. Further, the GI50 is 1.68 µM in the experiment on HCC-2998 colon, 6.38 µM with DU-145 prostate, 1.78 µM in the experiment with SF-295 CNS and 1.87 µM in the experiment with M14 melanoma. The TGI is 7.61 µM and 25.2 µM in the experiment on SNB-75 CNS; 6.08 µM and 37.9 µM with KM12 colon; 3.47 µM and 28 µM in the experiment on MALME-3M melanoma; 15.7 µM and 31.3 µM in the experiment on NCI-H23 lung; 3.11 µM and 20.6 µM in the experiment on UACC-257 melanoma; 13.9 µM and 28.5 µM in the experiment on OVCAR-4 ovarian. Further, the TGI is 3.43 µM and 4.76 µM with HCC-2998 colon; 18.6 µM and 29.7 µM with DU-145 prostate; 4.09 µM and 29.7 µM with SF-295 CNS; 3.58 µM and 11.4 µM in the experiment with M14 melanoma.
As to `CS(=O)(=O)c1ccc(N/N=C/c2c(-c3ccc(S(C)(=O)=O)cc3)[nH]c3ccc(F)cc23)cc1`, the GI50 is 1.52 µM in the experiment on SNB-75 CNS; 2.84 µM in the experiment with KM12 colon; 1.34 µM with MALME-3M melanoma; 2.84 µM with NCI-H23 lung; 1.8 µM with UACC-257 melanoma; 1.97 µM in the experiment with OVCAR-4 ovarian. The GI50 in the experiment on HCC-2998 colon is 10.8 µM; in the experiment on DU-145 prostate it was 2.75 µM; in the experiment with SF-295 CNS it was 0.934 µM; in the experiment with M14 melanoma, 2.16 µM. The TGI is 40 µM in the experiment on SNB-75 CNS; more than 50 µM in the experiment with KM12 colon; 4.38 µM in the experiment on MALME-3M melanoma; more than 50 µM with NCI-H23 lung; 20.2 µM with UACC-257 melanoma; more than 50 µM in the experiment with OVCAR-4 ovarian. The TGI was more than 50 µM in the experiment with HCC-2998 colon, more than 50 µM with DU-145 prostate, 1.89 µM in the experiment on SF-295 CNS and more than 50 µM with M14 melanoma.
On to `O=c1[nH]cnc2c(C3OC(CO)C(O)C3O)[nH]nc12` (stereo not given), for which the TGI with SNB-75 CNS is more than 100 µM; in the experiment on KM12 colon, more than 100 µM; in the experiment on MALME-3M melanoma, more than 100 µM; in the experiment with NCI-H23 lung it was more than 100 µM; in the experiment with UACC-257 melanoma it was more than 100 µM; in the experiment with OVCAR-4 ovarian it was 48.6 µM. The TGI with HCC-2998 colon was more than 100 µM; in the experiment on DU-145 prostate it was 38.2 µM; in the experiment with SF-295 CNS it was more than 100 µM; with M14 melanoma, more than 100 µM.
For `O=C1C=C(Nc2ccccc2)c2ncccc2C1=O`, the GI50 in the experiment on SNB-75 CNS is 1.58 µM; with KM12 colon it was 0.669 µM; in the experiment on MALME-3M melanoma it was 1.06 µM; in the experiment on NCI-H23 lung it was 0.307 µM; with UACC-257 melanoma, 1.29 µM; in the experiment with OVCAR-4 ovarian it was 0.321 µM. Also, the GI50 in the experiment on HCC-2998 colon is 1.55 µM; in the experiment on DU-145 prostate, 0.341 µM; in the experiment with SF-295 CNS it was 1.31 µM; with M14 melanoma, 0.352 µM. Further, the TGI with SNB-75 CNS is 2.94 µM; in the experiment with KM12 colon, 2.11 µM; in the experiment on MALME-3M melanoma, 2.37 µM; in the experiment on NCI-H23 lung, 1.31 µM; with UACC-257 melanoma it was 2.66 µM; in the experiment on OVCAR-4 ovarian, 1.11 µM. Further, the TGI in the experiment with HCC-2998 colon was found to be 3 µM; in the experiment with DU-145 prostate, 1.12 µM; with SF-295 CNS, 2.6 µM; with M14 melanoma it was 1.17 µM.
As for `C#C[C@@]1(O)[C@@H](CO)O[C@@H](n2cc(Cl)c3c(N)ncnc32)[C@@H]1O`, the GI50 is 0.283 µM in the experiment with SNB-75 CNS; 0.142 µM in the experiment with KM12 colon; 0.241 µM in the experiment on MALME-3M melanoma; 0.192 µM in the experiment on NCI-H23 lung; 0.347 µM with UACC-257 melanoma; 0.323 µM with OVCAR-4 ovarian. Besides, the GI50 in the experiment with HCC-2998 colon is 0.186 µM; in the experiment on DU-145 prostate it was 0.131 µM; with SF-295 CNS it was 0.202 µM; in the experiment with M14 melanoma, 0.177 µM. Further, the TGI in the experiment on SNB-75 CNS was 0.714 µM; in the experiment with KM12 colon, more than 100 µM; in the experiment with MALME-3M melanoma, 3.18 µM; with NCI-H23 lung, 0.957 µM; with UACC-257 melanoma it was more than 79.9 µM; in the experiment on OVCAR-4 ovarian, 3.34 µM. Further, the TGI was 0.532 µM with HCC-2998 colon, more than 52 µM in the experiment on DU-145 prostate, 3.2 µM in the experiment on SF-295 CNS and 0.585 µM in the experiment on M14 melanoma.
With `CCCCCCCCCCCCCCCCC1=CC(=O)C=C(OC)C1=O`, the TGI with SNB-75 CNS, in the experiment on KM12 colon, in the experiment on MALME-3M melanoma, with NCI-H23 lung, in the experiment with UACC-257 melanoma and in the experiment with OVCAR-4 ovarian was more than 100 µM in each case. The TGI in the experiment on HCC-2998 colon, in the experiment on DU-145 prostate, in the experiment with SF-295 CNS and in the experiment on M14 melanoma was more than 100 µM in each case.
